Source: US11179388B2, “Topical composition for treating rosacea and a method for treating rosacea with the same” (ADS THERAPEUTICS LLC, priority 2017, dated 2021)

Assays:
[1] = test system: pterygium patients (pterygium vascularity); test: Phase 2a clinical trial of nintedanib eye drop in pterygium patients; type: in vivo, human
Method: Nintedanib was formulated into an eye drop and tested in pterygium patients in a Phase 2a clinical trial to evaluate the safety and efficacy of nintedanib. The key efficacy endpoint is effects on pterygium vascularity.
The clinic trial was conducted in two stages. In stage 1, the safety, tolerability and pharmacokinetics were evaluated in a single dose escalating study. Three dose cohorts with 8 patients in each were evaluated. Cohort 1 began at the lowest concentration of 0.02% nintedanib (weight percent based on the total weight of the eye drop), followed by an increasing dose to 0.05% for Cohort 2 and then to 0.2% for Cohort 3.
In stage 2, the safety, tolerability and efficacy of the 0.2% formulation were evaluated in a randomized, double-masked, vehicle-controlled, parallel study with 28 days TID repeat ocular dosing of vehicle and 0.2% nintedanib. The patients were further followed up by 20 weeks of post-dosing observation. Ophthalmic and physical examinations were performed at screening, Day 1 and Week 2, 4, 8, 16, and 24. External photograph of the pterygium eye was taken using a digital camera and the pterygium vascularity was graded from these images at an independent image reading center. The primary objective is to evaluate ocular and systemic safety of nintedanib in pterygium patients that have moderate to severe pterygium vascularity. […]

[2] = test system: Rosacea patients with moderate to severe persistent facial erythema; test: Erythema study, Clinician Erythema Assessment (CEA) in rosacea patients; type: in vivo, human
Description: Rosacea patients with moderate to severe persistent facial erythema are selected for treatment. The erythema is graded according to the Clinician Erythema Assessment (CEA) scale with photonumeric guide. It has a five-point scale: 0: clear skin with no signs of erythema; 1: almost clear, slight redness; 2: mild erythema, definite redness; 3: moderate erythema, marked redness; 4: severe erythema, fiery redness. Patients with CEA […] are enrolled in the study.
The study is double-masked. There are 5 treatment groups for 5 cream formulations (vehicle, 0.2% nintedanib, 0.3% brimonidine, combo-1 [0.2% nintedanib and 0.3% brimonidine], and combo-2 [0.1% nintedanib and 0.15% brimonidine]) to be tested and each group will have about 20 patients. The patients are assigned to the groups in a way to make sure the base line average grade is similar among the groups. The formulations are dosed once daily for 4 weeks and the patients are further followed up for 8 weeks. The drug is administered by a physician on the first day of visit and then self-administered by the patient for the remaining 4 weeks. Patients are evaluated on day 1, week 2 and 4 during dosing. After the stop of dosing, patients are further followed up at week 8 and 12.
The effect on erythema is evaluated by taking pictures of the face. […] The tolerability of the formulations is also evaluated by assessing treatment related adverse events. The efficacy and tolerability data are analyzed by independent statisticians.

[3] = day 1 after dosing, cream formulations
[4] = week 1, 2 and 4, during dosing, cream once daily

Compound	safety and tolerability (stage 2) ([1]; 0.2% eye drop TID 28 days, 20 weeks post-dosing observation)	safety, single dose escalating study (stage 1) ([1]; eye drop 0.02%, 0.05% and 0.2%, single dose, 8 patients per cohort)	erythema grade after stop of treatment ([2]; after stop of dosing at week 4, week 8 and 12)	erythema grade reduction from baseline [2, 3]	erythema grade reduction from baseline [2, 4]	erythema grade versus baseline after stop of treatment ([2]; week 8)	erythema grade versus baseline after stop of treatment ([2]; week 12)
COC(=O)c1ccc2c(c1)NC(=O)/C2=C(\Nc1ccc(N(C)C(=O)CN2CCN(C)CC2)cc1)c1ccccc1 [Nintedanib, (Z)-3-(1-(4-(N-((4-methyl-piperazin-1-yl)-methylcarbonyl)-N-methyl-amino)-phenylamino)-1-phenyl-methylene]-6-methoxycarbonyl-2-indolinone]	excellent with no serious adverse events	No safety issues	remains lower than the baseline	does not change	about 1 grade		
Brc1c(NC2=NCCN2)ccc2nccnc12 [brimonidine, (5-bromoquinoxalin-6-yl)-(4,5-dihydro-1H-imidazol-2-yl)-amine]				about 1 grade	reduction remains	slightly higher than baseline	returns to the baseline
